The values that follow come from patent publication US20160038526A1, “TREATMENT OF PROSTATE CANCER” (THOMAS JEFFERSON UNIVERSITY, priority 2012, published 2016).

In one assay the target is T1, Stat5b (Homo sapiens, UniProt P51692).
T1 construct: expressed in transfected cells; host or cells: PC-3 (human prostate cancer cell line)
Briefly: Stat5b transcriptional activity, β-casein promoter luciferase reporter gene assay in PC-3 cells. The following applies: 1 hour pretreatment, 10 nM hPrl for 16 hours. It counts as cell-based. As for the experimental part: Cells of the human prostate cell line PC-3 were plated into 96-well plate at the density of 2×10^5 per well. After 24 hours of plating, cells were transiently co-transfected using FuGENE6 (Roche) with 0.25 μg of each of pStat5a or pStat5b, pPrlR (prolactin receptor) plasmids, 0.5 μg of pBeta-casein-luc and 0.025 μg of pRL-TK (Renilla luciferase) plasmids as an internal control. After another 24 hours of transfection, the cells were starved in serum-free medium for 8 hours, pretreated with N^6-benzyladenosine-5′-monophosphate (“N6BAP”), or one of five control compounds (designated “C3” through “C7”) of similar molecular weight but unrelated chemical structure to N6BAP), for 1 hour, and then stimulated with 10 nM human prolactin (hPrl) in the serum-free medium for additional 16 hours. The lysates were assayed for firefly and Renilla luciferase activities using the Dual-Luciferase reporter assay system (Promega). Three independent experiments were carried out in triplicate. The firefly luciferase activity was normalized to the Renilla luciferase activity of the same sample, and the mean was calculated from the parallels. From the mean values of each independent run, the overall mean and its standard deviation (S.D.) were calculated.
Background: In a reporter assay the amount or activity of a reporter protein is the signal.

Another assay deals with Stat3. Briefly: Nuclear Stat3 immunostaining in CWR22Rv1 xenograft tumors. It counts as in vivo, nude mice. Conditions: CWR22Rv1 xenograft tumors of Example 10. Here is the method: Nuclear active Stat5a/b or nuclear active Stat3 were analyzed by immunostaining with an anti-Stat5a/b or anti-Stat3 antibody, respectively, and biotin-streptavidin amplified peroxidase antiperoxidase immunodetection of paraffin-embedded sections of the prostate xenograft tumors of Example 10. Anti-Stat5a/b (mAb) (55 ng/ml) (Santa Cruz Biotechnology) was used as the primary antibody and antigen-antibody complexes were detected by appropriate biotinylated goat secondary antibodies (Biogenex Laboratories) followed by streptavidin-horseradish-peroxidase complex, and 3,3′-diaminobenzidine as chromogen and Mayer hematoxylin as counterstain. Three microscopic views of each tumor (ten tumors per each treatment group) were photographed at 20× magnification. Nuclear Stat5 and Stat3 indexes were determined by counting epithelial cells with nuclear Stat5a/b immunostaining-positive cells per total number of epithelial cells per view. The counts were averaged within the tumors in a given treatment group.

The target of another assay is T2, Stat5a (Homo sapiens, UniProt P42229).
T2 sequence (P42229 1-794): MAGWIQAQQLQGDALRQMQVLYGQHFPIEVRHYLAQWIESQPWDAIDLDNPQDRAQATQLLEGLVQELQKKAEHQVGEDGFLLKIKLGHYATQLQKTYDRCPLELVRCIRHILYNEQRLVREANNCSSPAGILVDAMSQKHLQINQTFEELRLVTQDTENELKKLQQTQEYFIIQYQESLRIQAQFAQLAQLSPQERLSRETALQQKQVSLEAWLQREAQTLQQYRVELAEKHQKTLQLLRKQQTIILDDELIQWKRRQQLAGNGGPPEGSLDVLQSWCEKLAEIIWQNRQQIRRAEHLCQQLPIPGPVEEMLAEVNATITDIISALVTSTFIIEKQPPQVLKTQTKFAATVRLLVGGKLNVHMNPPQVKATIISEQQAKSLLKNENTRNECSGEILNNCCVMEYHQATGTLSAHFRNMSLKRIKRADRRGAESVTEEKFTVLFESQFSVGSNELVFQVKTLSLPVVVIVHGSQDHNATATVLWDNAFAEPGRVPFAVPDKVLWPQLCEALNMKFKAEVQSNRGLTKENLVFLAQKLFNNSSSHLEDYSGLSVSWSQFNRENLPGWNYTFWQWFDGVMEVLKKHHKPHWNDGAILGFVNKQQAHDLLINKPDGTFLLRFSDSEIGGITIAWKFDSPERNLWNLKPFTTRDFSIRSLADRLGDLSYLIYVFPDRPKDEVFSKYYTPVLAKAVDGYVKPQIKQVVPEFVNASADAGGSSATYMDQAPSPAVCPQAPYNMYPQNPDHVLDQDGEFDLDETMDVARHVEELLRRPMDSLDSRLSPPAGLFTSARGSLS
Kind of assay: Stat5a translocation to the nucleus in PC3 cells (immunofluorescence). It is filed as cell-based. Also noted: expressed in transfected cells; host or cells: PC-3 (human prostate cancer cell line). The following applies: 2 hours pretreatment, 10 nmol/L Prl 30 minutes. Here is the method:
PC3 cells were infected with Ade-Stat5a and Ade-PrlR at MOI 5 for each adenovirus. Cells were pretreated with N6BAP or vehicle (DMSO) for 2 hours and then stimulated with 10 nmol/L Prl for 30 minutes. Cells were fixed with 100% methanol for 15 min and subsequently permeabilized with 0.1% Triton X-100 in PBS (pH 7.4). After blocking with 2% bovine serum albumin in PBS, cells were incubated with an antibody specific for Stat5a or Stat5b at 4° C. for 2 hours. Cells were then washed with PBS and incubated with FITC-conjugated secondary antibody (Jackson ImmunoResearch) at room temperature for 1 hour. The images were taken by using an inverted fluorescence microscopy (Carl Zeiss). […] It should be noted the drug effect in this study was not due to cell apoptosis induction, as the treatment time was only 2 hours. Treatment of at least 48 hours is required for the compound to induce prostate cancer cell apoptosis.

The subject of assay [1] is A549 human lung cancer cells. Briefly: Cell viability assay, A549. It is filed as cell-based. As for the experimental part:
CWR22Rv1 prostate cancer cells were treated with N6BAP or the control compound C5 (Ctrl) at 25 μM concentration or vehicle for 24 h. Following trypan blue exclusion, the attached viable vs. de-attached dead cells were counted. […] The bars indicate mean±SD of triplicate wells. In another assay, CWR22Rv1, LNCaP and DU145 cells were treated with N6BAP, the control compound C5 (Ctrl) or vehicle at indicated concentrations. The fraction of alive cells was determined by MTS ([…]) metabolic activity assay (CellTiter 96® AQueous Assay kit). The results are shown in FIGS. 9C, 9D and 9E, respectively.
The procedure of Example 9 was followed, substituting cells of the following solid tumor cell lines for the cells treated in Example 9: A549 human lung cancer cells, CAPAN human pancreatic cancer cells, T47D human breast cancer cells, […], A2058 human melanoma and COS-7 monkey fibroblast cell lines.

Entries after “also recorded” stand apart in the source; their conditions may differ.

T1 sequence (P51692 whole entry, species assumed): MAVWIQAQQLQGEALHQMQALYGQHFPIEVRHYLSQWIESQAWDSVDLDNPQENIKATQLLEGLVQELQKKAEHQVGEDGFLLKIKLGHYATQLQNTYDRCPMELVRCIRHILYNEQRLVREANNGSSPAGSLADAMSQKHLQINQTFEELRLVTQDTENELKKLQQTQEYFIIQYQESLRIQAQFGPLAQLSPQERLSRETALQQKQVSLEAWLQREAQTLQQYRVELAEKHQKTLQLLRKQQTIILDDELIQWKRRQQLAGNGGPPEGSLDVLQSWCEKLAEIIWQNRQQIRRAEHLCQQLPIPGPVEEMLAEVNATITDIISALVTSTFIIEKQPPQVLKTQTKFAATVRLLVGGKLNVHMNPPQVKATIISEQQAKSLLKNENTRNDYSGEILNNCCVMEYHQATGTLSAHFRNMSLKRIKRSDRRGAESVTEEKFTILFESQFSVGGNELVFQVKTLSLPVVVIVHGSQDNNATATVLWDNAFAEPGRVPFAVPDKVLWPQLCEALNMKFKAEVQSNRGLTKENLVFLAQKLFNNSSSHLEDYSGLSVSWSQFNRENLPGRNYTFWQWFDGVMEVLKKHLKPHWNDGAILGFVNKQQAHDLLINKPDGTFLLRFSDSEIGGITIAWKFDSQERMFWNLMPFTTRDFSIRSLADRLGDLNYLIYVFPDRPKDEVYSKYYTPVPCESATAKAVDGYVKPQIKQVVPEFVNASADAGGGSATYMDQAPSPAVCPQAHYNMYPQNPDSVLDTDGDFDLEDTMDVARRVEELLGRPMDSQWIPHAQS

For the compound `O=P(O)(O)OC[C@H]1O[C@@H](n2cnc3c(NCc4ccccc4)ncnc32)[C@H](O)[C@@H]1O` [N6BAP, N^6-benzyladenosine-5′-monophosphate], the “transcriptional activity of Stat5b on the β-casein gene promoter” value on Stat5b is “inhibited Stat5a and Stat5b transcriptional activity in a concentration-dependent manner; also recorded: effectively blocks the transcriptional activity”. Besides, in the assay with Stat3, the “nuclear Stat3 in xenograft tumors” value is reported as “without affecting nuclear Stat3”. Further, the “translocation of Stat5a to the nucleus” value at Stat5a is recorded as “blocks translocation of Stat5a to the nucleus”. In addition, the cell viability result in assay [1] was “did not affect the viability”.
